US20210302113A1, “FLUORINATED DIAMINOOLEFINS AND METHODS OF USING THE SAME” (3M INNOVATIVE PROPERTIES COMPANY, priority 2017, published 2021)

Assay: Thermal stability with absorbents, GC-FID purity after stirring at 60° C. for 24 h
Format: physicochemical
Method: The thermal stability was measured by charging a weighed amount of (E)-1,4-bis(perfluoromorpholino)but-2-ene (having a purity of 98.8%) into glass vials and then adding a weighed amount of absorbent. (The purity of the composition was measured by analyzing the sample using GC-FID and comparing the area of the peak of interest to the total peak areas in the chromatogram.) The mixture was stirred at 60° C. for 24 h and then analyzed by GC-FID. The percent purity of the treated sample was determined by the peak area of the (E)-1,4-bis(perfluoromorpholino)but-2-ene peak versus the total peak areas in the GC-FID chromatogram.

With `FC1(F)OC(F)(F)C(F)(F)N(C/C=C/CN2C(F)(F)C(F)(F)OC(F)(F)C2(F)F)C1(F)F` [(E)-1,4-bis(perfluoromorpholino)but-2-ene] the “GC Purity” value (4 Angstrom Molecular Sieves, starting purity 98.8%) was 98.8%, the “GC Purity” value (Activated Carbon, starting purity 98.8%) was 98.8% and the “GC Purity” value (Basic Alumina, starting purity 98.8%) was 99.5%. The “GC Purity” value (K2CO3, starting purity 98.8%) was 98.9%, the “GC Purity” value (No Adsorbent, starting purity 98.8%) was 98.8% and the “GC Purity” value (Silica Gel, starting purity 98.8%) was 98.8%.
